Measured values as given in patent US20260364080A1, “PYRAZOLO-PYRIMIDINONE COMPOUNDS FOR USE IN METHODS OF INHIBITING WEE1 A KINASE” (Acrivon Therapeutics, Inc., priority 2023, published 2026).
Like-named read-outs stand apart in the source and are kept apart here.

Assays:
[1] = molecular target: T1, recombinant human Wee1A kinase (Homo sapiens, UniProt P30291); experiment: Wee1A kinase binding assay (LanthaScreen Eu time-resolved FRET)
T1 construct: full length Wee1 kinase was expressed by baculovirus in insect cells; purchased Invitrogen PV3817; host or cells: insect cells (baculovirus)
T1 sequence (P30291 whole entry): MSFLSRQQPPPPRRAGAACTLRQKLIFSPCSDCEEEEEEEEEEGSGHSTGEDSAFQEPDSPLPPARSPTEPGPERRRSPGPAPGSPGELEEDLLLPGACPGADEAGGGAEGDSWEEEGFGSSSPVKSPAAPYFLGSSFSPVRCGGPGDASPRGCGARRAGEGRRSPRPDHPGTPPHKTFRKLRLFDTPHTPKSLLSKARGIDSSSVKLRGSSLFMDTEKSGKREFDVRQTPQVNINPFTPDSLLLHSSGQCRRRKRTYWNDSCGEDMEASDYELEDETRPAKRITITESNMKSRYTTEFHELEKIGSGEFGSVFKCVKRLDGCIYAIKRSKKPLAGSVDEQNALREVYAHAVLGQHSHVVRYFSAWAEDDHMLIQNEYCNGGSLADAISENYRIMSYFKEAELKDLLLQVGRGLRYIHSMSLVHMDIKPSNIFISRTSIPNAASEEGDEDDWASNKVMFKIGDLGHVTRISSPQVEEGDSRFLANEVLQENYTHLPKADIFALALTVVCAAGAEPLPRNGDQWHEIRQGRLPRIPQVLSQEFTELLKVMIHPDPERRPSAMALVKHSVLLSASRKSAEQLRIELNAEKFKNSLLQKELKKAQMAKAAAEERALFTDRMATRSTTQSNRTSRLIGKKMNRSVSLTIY
Outline: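 Full-length, baculovirus-expressed GST-tagged Wee1A (5 nM) was mixed with 2 nM Eu-anti-GST antibody, 30 nM kinase tracer 178 and compound (1% DMSO). Buffer was 50 mM HEPES pH 7.5, 10 mM MgCl2, 1 mM EGTA, 0.01% Brij-35, incubated 60 min at room temperature. TR-FRET 665/615 nm emission ratios from duplicates were curve-fitted.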

[2] = molecular target: T2, Myt1 kinase (recombinant PMYT-1) (Homo sapiens, UniProt Q99640); experiment: Myt1 kinase binding assay (LanthaScreen Eu Kinase Binding Assay)
T2 construct: full length PMYT-1 was expressed by baculovirus in insect cells; purchased Invitrogen A30984; host or cells: insect cells (baculovirus)
T2 sequence (Q99640 1-499): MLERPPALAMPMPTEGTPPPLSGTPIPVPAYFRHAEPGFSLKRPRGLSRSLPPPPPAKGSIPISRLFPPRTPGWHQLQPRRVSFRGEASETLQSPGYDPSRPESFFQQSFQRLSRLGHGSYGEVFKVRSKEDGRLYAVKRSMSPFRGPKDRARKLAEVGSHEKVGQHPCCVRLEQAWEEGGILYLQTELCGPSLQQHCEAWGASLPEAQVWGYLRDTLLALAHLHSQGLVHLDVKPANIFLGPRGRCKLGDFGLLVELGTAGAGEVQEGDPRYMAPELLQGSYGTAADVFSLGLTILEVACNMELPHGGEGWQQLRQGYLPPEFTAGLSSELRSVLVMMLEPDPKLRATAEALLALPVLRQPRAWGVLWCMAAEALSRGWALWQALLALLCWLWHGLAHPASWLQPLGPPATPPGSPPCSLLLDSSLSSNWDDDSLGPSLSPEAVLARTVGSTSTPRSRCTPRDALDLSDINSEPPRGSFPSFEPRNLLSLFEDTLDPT
Outline: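 The binding affinity of compounds for Myt1 kinase was measured with a LanthaScreen Europium (Eu) Kinase Binding Assay, a time-resolved FRET format in which test compounds compete against a labeled kinase tracer, and the results were expressed as IC50 values describing compound binding to Myt1.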

[3] = molecular target: T3, Myt1 kinase (CDK1 Thr14 phosphorylation in DAOY medulloblastoma cells) (Homo sapiens, UniProt Q99640); experiment: AlphaLISA assay, Myt1 kinase target engagement (phospho-CDK1 Thr14) in DAOY cells; format: cell-based; conditions: 4 h treatment, read-out: CDK1 Thr14 Phosphorylation EC50
T3 construct: pCDK1 Thr14 AlphaLISA read-out
T3 sequence (Q99640 1-499): T2 sequence (Q99640 1-499)
Description: (§1) Each of an ACHN renal cell carcinoma cell line (ATCC) and a DAOY medulloblastoma cell line, and an A427 lung cancer line were cultured in Minimum Essential Medium Eagle supplemented with 10% fetal calf serum (Sigma), 1% Penicillin-Streptomycin and 10 mM HEPES buffer (HyClone). Cell cultures were kept in a humidified incubator at 37 °C and 5% CO2. Cells were routinely tested for Mycoplasma contamination.
For target engagement assessment of Myt1 kinase inhibition, quantification of Cdk1 phosphorylated on threonine 14 was detected using the AlphaLISA® SureFire® Ultra™ Human Phospho-CDK1 (Thr14) assay (Perkin Elmer). DAOY or ACHN cells were seeded into tissue culture treated 96-well plates (VWR) to a density of 10,000 or 20,000 cells per well respectively. 24 h post seeding cells were treated for 4 h with compounds at concentrations ranging from 7 to 5000 nM. Cells were washed with PBS and lysed in 50 μl AlphaLISA lysis buffer before freezing at −80 C. Ten ul of the lysate was transferred to 384 well plates and incubated with AlphaLISA donor and acceptor beads according to the manufacturer's instructions. Dose response curves and EC50 values were calculated and visualized using GraphPad Prism version 9. Target engagement for Myt1 kinase can also be measured using the same AlphaLISA assay in OVCAR3 cells, an ovarian cancer cell line. NIH:OVCAR-3 (OVCAR3) cells are cultured in RPMI-1640 medium supplemented with 0.01 mg/ml insulin, 20% FBS, 1% Penicillin-Streptomycin and 10 mM HEPES buffer. 14,000 cells per well are seeded into 96 well tissue culture plates in full medium. Twenty-four hours post seeding, cells are treated with compound for 4 hours at concentrations ranging from 0.017 nM to 1000 nM.

[4] = molecular target: T4, Wee1A kinase (CDK1 Tyr15 phosphorylation in ACHN renal cell carcinoma cells) (Homo sapiens, UniProt P30291); experiment: High-content imaging of pCdk1 Y15, Wee1A kinase target engagement in ACHN cells; format: cell-based
T4 construct: pCDK1 Tyr15 immunofluorescence read-out
T4 sequence (P30291 whole entry): as the sequence (P30291 whole entry) above
Outline: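 ACHN cells exposed to compound for 4 h over 7–5,000 nM or 0.3–200 nM, then fixed and immunostained for pCDK1 Y15 with DAPI nuclear counterstain. The percentage of pCdk1 Y15 nucleus-positive cells relative to DMSO control was imaged per well; EC50 from dose-response curves.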

ACHN cells = experiment: Cell Titer Glo viability assay, ACHN cells; format: cell-based; conditions: Homo sapiens, 144 h, absolute EC50
Description: as §1
ACHN cells, DAOY cells, or A427 cells were seeded at a density of 400, 250, or 500 cells per well respectively, in tissue culture treated 384 well plates (Corning Costar). After overnight incubation, cells were treated with drugs at concentrations ranging from 17 to 10 000 nM. Viability compared to untreated control was assessed at 144 h using Cell Titer Glo assay 2.0 (Promega). […] “NT” means the compounds was not tested in the indicated cells.

[5] = 30 nM tracer 178, 5 nM Wee1A kinase, 2 nM Eu-labeled antibody, 60 minutes at room temperature, read-out: Wee1A kinase Binding IC50
[6] = 3 nM tracer 178, 2.5 nM PMYT-1, 1 nM Eu-labeled antibody, read-out: Myt1 kinase Binding IC50
[7] = 4 h treatment, nuclear positivity for pCdk1 Y15 vs DMSO control, read-out: CDK1 Tyr15 Phosphorylation EC50

C=CCn1c(=O)c2cnc(Nc3cccnc3)nc2n1-c1cccc(OC2CCNCC2)n1 [Compound 230, 2-allyl-1-[6-(4-piperidyloxy)-2-pyridyl]-6-(3-pyridylamino)-1,2-dihydro-3H-1,2,5,7-tetraazainden-3-one]
IC50 [1, 5]: < 10 nM | IC50 [2, 6]: < 20 nM | EC50 [3]: > 1000 nM | EC50 [4, 7]: > 1000 nM

C=CCn1c(=O)c2cnc(Nc3ccc4oc(C)nc4c3)nc2n1-c1cccc(OC2CCNCC2)n1 [Compound 232, 2-allyl-6-(2-methyl-1,3-benzoxazol-5-ylamino)-1-[6-(4-piperidyloxy)-2-pyridyl]-1,2-dihydro-3H-1,2,5,7-tetraazainden-3-one]
IC50 [1, 5]: < 10 nM | IC50 [2, 6]: < 20 nM | EC50 [3]: 200 to 500 nM | EC50 [4, 7]: < 100 nM

C=CCn1c(=O)c2cnc(Nc3cncc(C)c3)nc2n1-c1cccc(OC2CCN(C)CC2)n1 [Compound 292, 1-{6-[(1-methylpiperidin-4-yl)oxy]pyridin-2-yl}-6-[(5-methylpyridin-3-yl)amino]-2-(prop-2-en-1-yl)-1H,2H,3H-pyrazolo[3,4-d]pyrimidin-3-one]
IC50 [1, 5]: < 10 nM | IC50 [2, 6]: 20 to 100 nM | EC50 [4, 7]: < 100 nM | EC50 (ACHN cells): ≤ 100 nM

C=CCn1c(=O)c2cnc(Nc3ccc4ccncc4c3)nc2n1-c1cccc(OC2CCNCC2)n1 [Compound 240, 2-allyl-6-(7-isoquinolylamino)-1-[6-(4-piperidyloxy)-2-pyridyl]-1,2-dihydro-3H-1,2,5,7-tetraazainden-3-one]
IC50 [1, 5]: < 10 nM | IC50 [2, 6]: 20 to 100 nM | EC50 [4, 7]: 100 to 500 nM | EC50 (ACHN cells): 100 to 500 nM

C=CCn1c(=O)c2cnc(Nc3ccc(OCC(F)(F)F)cc3)nc2n1-c1cccc(NC2CCN(C)CC2)n1 [Compound 139, 2-allyl-1-[6-(1-methyl-4-piperidylamino)-2-pyridyl]-6-[p-(2,2,2-trifluoroethoxy)phenylamino]-1,2-dihydro-3H-1,2,5,7-tetraazainden-3-one]
IC50 [1, 5]: < 10 nM | IC50 [2, 6]: 100 to 500 nM | EC50 [4, 7]: 100 to 500 nM | EC50 (ACHN cells): 100 to 500 nM

C=CCn1c(=O)c2cnc(Nc3ccc(OCC(F)(F)F)cc3)nc2n1-c1ccnc(NC2CCN(C)CC2)n1 [Compound 314, 2-allyl-1-[2-(1-methyl-4-piperidylamino)-4-pyrimidinyl]-6-[p-(2,2,2-trifluoroethoxy)phenylamino]-1,2-dihydro-3H-1,2,5,7-tetraazainden-3-one]
IC50 [1, 5]: < 10 nM | IC50 [2, 6]: 20 to 100 nM | EC50 [4, 7]: < 100 nM | EC50 (ACHN cells): ≤ 100 nM

C=CCn1c(=O)c2cnc(Nc3ccc(OC)c(C)c3)nc2n1-c1cccc(NC2CCNCC2)n1 [Compound 127, 2-allyl-6-(4-methoxy-3-toluidino)-1-[6-(4-piperidylamino)-2-pyridyl]-1,2-dihydro-3H-1,2,5,7-tetraazainden-3-one]
IC50 [1, 5]: < 10 nM | IC50 [2, 6]: 100 to 500 nM | EC50 [4, 7]: 100 to 500 nM | EC50 (ACHN cells): 500 to 1000 nM

C=CCn1c(=O)c2cnc(Nc3cccc(C)c3)nc2n1-c1cccc(NC2CCN(C)CC2)n1 [Compound 188, 2-allyl-1-[6-(1-methyl-4-piperidylamino)-2-pyridyl]-6-m-toluidino-1,2-dihydro-3H-1,2,5,7-tetraazainden-3-one]
IC50 [1, 5]: < 10 nM | IC50 [2, 6]: 100 to 500 nM | EC50 [4, 7]: < 100 nM | EC50 (ACHN cells): ≤ 100 nM

CCn1c(=O)c2cnc(Nc3ccc4c(c3)ncn4C)nc2n1-c1cccc(OC2CCNCC2)n1 [Compound 318, 2-ethyl-6-((1-methyl-1H-benzo[d]imidazol-5-yl)amino)-1-(6-(piperidin-4-yloxy)pyridin-2-yl)-1,2-dihydro-3H-pyrazolo[3,4-d]pyrimidin-3-one]
IC50 [1, 5]: < 10 nM | IC50 [2, 6]: 20 to 100 nM | EC50 [4, 7]: > 1000 nM | EC50 (ACHN cells): > 1000 nM

C=CCn1c(=O)c2cnc(Nc3ccnc(C)c3)nc2n1-c1cccc(OC2CCNCC2)n1 [Compound 113, 2-allyl-6-(2-methyl-4-pyridylamino)-1-[6-(4-piperidyloxy)-2-pyridyl]-1,2-dihydro-3H-1,2,5,7-tetraazainden-3-one]
IC50 [1, 5]: < 10 nM | IC50 [2, 6]: 20 to 100 nM | EC50 [4, 7]: 500 to 1000 nM | EC50 (ACHN cells): > 1000 nM

[2H]C([2H])([2H])c1cccc(Nc2ncc3c(=O)n(CC=C)n(-c4cccc(OC5CCNCC5)n4)c3n2)c1 [Compound 334, 2-allyl-6-((3-(methyl-d3)phenyl)amino)-1-(6-(piperidin-4-yloxy)pyridin-2-yl)-1,2-dihydro-3H-pyrazolo[3,4-d]pyrimidin-3-one]
IC50 [1, 5]: < 10 nM | IC50 [2, 6]: 20 to 100 nM | EC50 [4, 7]: < 100 nM | EC50 (ACHN cells): ≤ 100 nM

CCn1c(=O)c2cnc(Nc3ccc4c(c3)ncn4C)nc2n1-c1cccc(OC2CCN(C)CC2)n1 [Compound 235, 2-ethyl-6-((1-methyl-1H-benzo[d]imidazol-5-yl)amino)-1-(6-((1-methylpiperidin-4-yl)oxy)pyridin-2-yl)-1,2-dihydro-3H-pyrazolo[3,4-d]pyrimidin-3-one]
IC50 [1, 5]: < 10 nM | IC50 [2, 6]: 20 to 100 nM | EC50 [4, 7]: < 100 nM | EC50 (ACHN cells): ≤ 100 nM

C=CCn1c(=O)c2cnc(Nc3ccc4nc(C)oc4c3)nc2n1-c1cccc(OC2CCNCC2)n1 [Compound 316, 2-allyl-6-(2-methyl-1,3-benzoxazol-6-ylamino)-1-[6-(4-piperidyloxy)-2-pyridyl]-1,2-dihydro-3H-1,2,5,7-tetraazainden-3-one]
IC50 [1, 5]: < 10 nM | IC50 [2, 6]: 20 to 100 nM | EC50 [4, 7]: < 100 nM | EC50 (ACHN cells): 100 to 500 nM

C=CCn1c(=O)c2cnc(Nc3ccc4c(cnn4C)c3)nc2n1-c1cccc(N[C@@H]2CCNC2)n1 [Compound 102, 1-{6-[(R)-3-pyrrolidinylamino]-2-pyridyl}-2-allyl-6-(1-methyl-1H-indazol-5-ylamino)-1,2-dihydro-3H-1,2,5,7-tetraazainden-3-one]
IC50 [1, 5]: < 10 nM | IC50 [2, 6]: 20 to 100 nM | EC50 [4, 7]: > 1000 nM | EC50 (ACHN cells): > 1000 nM

C=CCn1c(=O)c2cnc(Nc3cnn(C)c3)nc2n1-c1cccc(O[C@H]2CN3CCC2CC3)n1 [Compound 172, 1-{6-[(3R)-1-azabicyclo[2.2.2]octan-3-yloxy]pyridin-2-yl}-6-[(1-methyl-1H-pyrazol-4-yl)amino]-2-(prop-2-en-1-yl)-1H,2H,3H-pyrazolo[3,4-d]pyrimidin-3-one]
IC50 [1]: < 10 nM | IC50 ([2]; Myt1 kinase Binding IC50, 3 nM tracer 178, 2.5 nM PMYT-1, 1 nM Eu-labeled antibody): > 500 nM | EC50 ([4]; read-out: CDK1 Tyr15 Phosphorylation EC50, 4 h treatment, nuclear positivity for pCdk1 Y15 vs DMSO control): > 1000 nM | EC50 (ACHN cells): > 1000 nM
